Measurements taken from article PMC7911220, “Monoterpenoids from the Fruits of Amomum tsao-ko Have Inhibitory Effects on Nitric Oxide Production” (Plants, 2021).
Read-outs that look alike come from different tables or passages of the source.

What was measured:
[1] = tested on: LPS-induced NO production in RAW 264.7 cells; experiment: LPS-induced NO production, Griess reaction assay; assay type: cell-based, mouse; conditions: read-out: IC50, inhibition of LPS-induced NO production
Description: (§1) To obtain plant-derived inhibitors of NO as potential lead compounds for treating inflammation disorders, monoterpene constituents 1–6 isolated from the fruits of A. tsao-ko were assayed to determine their inhibitory activities on LPS-induced NO production in murine macrophage RAW 264.7 cells via the Griess reaction assay, as described previously.
(§2) Mouse RAW264.7 macrophage cells (TIB-71) were maintained in Dulbecco’s modified Eagle medium (DMEM) supplemented with 10% fetal bovine serum (FBS), 100 U/mL penicillin, and 0.1 mg/mL streptomycin in a humidified incubator with 5% CO2 at 37 °C.
(§3) The Griess reaction was performed to measure the concentration of nitrite in the medium as an indicator of NO production. RAW264.7 macrophage cells were cultured in a 96-well plate after seeding at a density of 4 × 10^5 cells/well for 24 h in DMEM supplemented with 10% FBS, and stimulated with or without LPS (1 μg/mL, Sigma Aldrich, St. Louis, MO, USA) in the presence or absence of the compounds. After 24 h of incubation at 37 °C, 5% CO2, the cell supernatant was reacted with equal volumes of Griess reagent solutions to determine nitrite production. Absorbance was measured with a microplate reader (Molecular Devices, Sanjose, CA, USA) at 540 nm. Cell viability was confirmed via MTT (Duchefa Biochemie, Haarlem, The Netherlands) assay. The supernatant was removed and medium containing MTT solution (5 mg/mL in phosphate-buffered saline) was added to each well and incubated for 2 h. The medium was removed, and 100 μL of dimethyl sulfoxide (Duchefa Biochemie, Haarlem, The Netherlands) was added to each well to dissolve the purple formazan product to obtain a colored solution. Absorbance was measured at 540 nm with a microplate reader.

[2] = tested on: RAW264.7 macrophage cells; experiment: MTT assay for cell viability; conditions: RAW 264.7 cells, LPS-stimulated
Description: as §1, §2, §3

[3] = tested on: iNOS protein expression; experiment: Western blot analysis of iNOS protein expression in LPS-stimulated RAW264.7 cells; assay type: cell-based, mouse; conditions: pretreatment 10, 50, 100 μM for 1 h, then LPS 1 μg/mL 24 h
Text: L-Arginine-derived NO is an intracellular signaling molecule formed in mammalian cells by different three isoforms of nitric oxide synthase (NOS). The isozymes are referred to as neuronal NOS (nNOS or NOS I), inducible NOS (iNOS or NOS II), and an endothelial NOS (eNOS or NOS III). Excessive generation of NO by iNOS is seen in inflammatory diseases such as autoimmune and chronic inflammatory disorders. To examine the mechanism of NO inhibition by active compound 4, we evaluated iNOS protein expression via western blotting.
Figure 2 Effects of (1R,4S,6S)-1,6-dihydroxy-2-menthene (compound 4) on iNOS protein and pro-inflammatory cytokine mRNA expression in LPS-stimulated RAW264.7 cells. […] (C,D) Levels of iNOS, IL-1β, and IL-6 mRNAs were determined via RT-PCR. RT-PCR data results were expressed as the fold of changes of the target gene (iNOS, IL-1β, and IL-6) and normalized to the GAPDH. […]
RAW264.7 cells, plated in 6-well plates (1 × 10^6 cells/well), were treated with compound 4 (10, 50, and 100 μM). […] Protein expression was analyzed via immunoblotting with antibodies against anti-iNOS (cat. no. ab3523; dilution, 1:500, Abcam, Cambridge, UK) and β-actin (cat. no. 5125; dilution, 1:1000, Cell Signaling Technology, Danvers, MA, USA). […] The bands of interest were quantified using the imageJ software.

[4] = tested on: IL-6 mRNA; experiment: RT-PCR of IL-6 mRNA in LPS-stimulated RAW264.7 cells; assay type: cell-based, mouse; conditions: 10, 50, 100 μM for 1 h, then LPS 1 μg/mL 24 h, normalized to GAPDH
Description: (§4) Figure 2 Effects of (1R,4S,6S)-1,6-dihydroxy-2-menthene (compound 4) on iNOS protein and pro-inflammatory cytokine mRNA expression in LPS-stimulated RAW264.7 cells. RAW264.7 cells were pretreated with different concentrations (10, 50, 100 μM) of compound 4 for 1 h, and then stimulated with 1 µg/mL LPS for 24 h. (A,B) Western blot analysis of iNOS expression in cells treated with compound 4 (10, 50, 100 μM). β-Actin was used as a loading control. (C,D) Levels of iNOS, IL-1β, and IL-6 mRNAs were determined via RT-PCR. RT-PCR data results were expressed as the fold of changes of the target gene (iNOS, IL-1β, and IL-6) and normalized to the GAPDH. Values represent the mean ± SD of three independent experiments. […]
(§5) Next, we confirmed the effect of compound 4 on the expression of inflammatory factors, i.e., iNOS, IL-1β, and IL-6 in LPS-stimulated RAW264.7 cells. […] We measured the levels of the relevant mRNAs via reverse transcription polymerase chain reaction (RT-PCR). […]
(§6) RAW264.7 cells, plated in 6-well plates (1 × 10^6 cells/well), were treated with compound 4 (10, 50, and 100 μM) for 1 h prior to LPS, and stimulated with 1 μg/mL LPS or remained unstimulated for 24 h. […] The bands of interest were quantified using the ChemiDoc XRS system and Quantity One software (Bio-Rad Laboratories, Hercules, CA, USA).

[5] = tested on: IL-1β mRNA; experiment: RT-PCR of IL-1β mRNA in LPS-stimulated RAW264.7 cells; assay type: cell-based, mouse; conditions: 10, 50, 100 μM for 1 h, then LPS 1 μg/mL 24 h, normalized to GAPDH
Description: as §4, §5, §6

[6] = tested on: iNOS mRNA; experiment: RT-PCR of iNOS mRNA in LPS-stimulated RAW264.7 cells; assay type: cell-based, mouse; conditions: 10, 50, 100 μM for 1 h, then LPS 1 μg/mL 24 h, normalized to GAPDH
Description: as §4, §5, §6

[7] = Mus musculus, RAW264.7, RAW 264.7 cells, LPS 1 μg/mL, 24 h, Griess reagent

IC50 [1, 7]	SMILES	MTT (cell viability) [2]	other results
> 100 µM	C=C(C)[C@H]1CC[C@@](C)(O)C[C@@H]1O [Compound 3, (1R,3S,4R)-3-hydroxy isopulegol]	>100 µM	–
> 100 µM	CC(=CCO)CCCC(C)CO (stereo not drawn) [Compound 5, 3,7-dimethyl-2-octene-1,8-diol]	>100 µM	–
> 100 µM	C/C(C=O)=C\CC/C(C)=C/CO [Compound 6, 8-oxogeraniol]	>100 µM	–

Continued, compound first:

SMILES	IC50 [1, 7]	MTT (cell viability) [2]	other results
O=CC1=CC[C@@H](O)[C@H]2CCC[C@@H]12 [Compound 1, tsaokoin]	–	>100 µM	IC50 ([1]; Mus musculus, RAW264.7, 24 h): > 100 µM
CC1=C[C@@H](O)[C@H](C(C)C)C[C@H]1O [Compound 2, (3S,4S,6R)-3,6-dihydroxy-1-menthene]	> 100 µM	>100 µM	–
CC(C)[C@H]1C=C[C@@](C)(O)[C@@H](O)C1 [Compound 4, (1R,4S,6S)-1,6-dihydroxy-2-menthene]	82.5 µM	>100 µM	iNOS protein expression [3]: significantly and dose-dependently inhibited iNOS expression; IL-6 mRNA level [4]: reduced; IL-1β mRNA level [5]: reduced; iNOS mRNA expression [6]: decreased the iNOS expression at the mRNA level, in a dose-dependent manner
CC(=O)O.CNC(=N)NCCC[C@H](N)C(=O)O [NG-methyl-L-arginine acetate, reference compound]	–	>100 µM	IC50 ([1]; RAW 264.7 cells, LPS 1 μg/mL, 24 h, Griess reagent): 34.2 µM
